Assays:
[1] = target: EGFR (WT) (Homo sapiens (Human), UniProt P00533); experiment: Kinase-Glo luminescent kinase assay, EGFR tyrosine kinase inhibitory activity (WT); assay type: biochemical; conditions: EGFR wild type
Experimental: (§1) Determination of the Compound Inhibitory Activity Against EGFR Kinase
(§2) The inhibitory activity of compounds in formula (I) and (II) were determined using Kinase-Glo luminescent kinase assay. The receptor tyrosine kinase EGFR was tested and Gefitinib, a known EGFR inhibitor, was chosen as the positive control compound. The method is detailed below:
(§3) The sample compounds were dissolved in DMSO and diluted it to 500 μM concentration with DMSO and transferred to a dose plate. The compounds were serially diluted with DMSO in 5 fold concentration. Then each concentration was diluted 10-fold with the reaction buffer to get a 10× final concentration. Transfer the compounds with concentrations ranging from 0.003 μM to 50 μM to EGFR assay plate to determine their kinase activity with a dose of 1 μL/well.
(§4) The positive control compound Gifitinib was dissolved in DMSO as 10 mM stock solution and diluted it to 100 μM concentration with DMSO. The control compound was serially diluted with DMSO in 5 fold concentration. Then each concentration was diluted 10-fold with the reaction buffer to get a 10× final concentration.
(§5) For the HPE (hundred percent effect: No kinase and no compound, but containing ATP, substrate and 1% DMSO) and ZPE (zero percent effect: No compound but containing kinase, ATP, substrate and 1% DMSO) wells, dilute 2 μL DMSO 10-fold with reaction buffer to obtain 10% DMSO solution. Then transfer it to the assay plat, 1 μL/well. The positive control wells contain kinase, ATP, substrate and positive control compound in different concentrations. The sample compound wells contain kinase, ATP, substrate and the compounds to be tested in different concentrations.
(§6) Preparation of the reagents in need: 4×ATP: dilute ATP 4 times with assay buffer to obtain a working solution; 4× substrate: dilute Poly ([…]: tyrosine) 4 times with assay buffer to obtain a working solution; 2.5×EGFR kinase: dilute EGFR kinase 2.5 times with assay buffer to obtain a working solution.
(§7) Kinase reaction: Add 10× compounds to the assay plate in a 384-well plate layout, 1 μL/well. For the HPE and ZPE wells, equal volume (1 μL/well) of 10% DMSO was added to the 384-well assay plate; Add 2.5×EGFR kinase into the assay plate in 384-well plate layout, 4 μL/well. For HPE and ZPE wells, an equal volume (4 μL/well) of assay buffer was added to the 384-well assay plate; Centrifuge the assay plate with 1000 rpm for 1 min to mix them; Pre-incubate the assay plate for 30 min at 30° C.; Mix equal volume of 4×ATP and 4× substrate to obtain 2×ATP-substrate mixture which serves as a reaction mixture for the determination of EGFR activity; Add 2×ATP-substrate mixture to the assay plate, 5 μL/well; Centrifuge the assay plate at 1000 rpm for 1 min to mix them; Incubate the assay plate for one hour at 30° C.; Add Kinase glo plus was to each well (10 μL/well), and then incubated the assay plate for 20 min at 27° C.; Read luminescence signal with Envision plate reader.

[2] = target: EGFR (T790M) (Homo sapiens (Human), UniProt P00533, T790M); experiment: Kinase-Glo luminescent kinase assay, EGFR tyrosine kinase inhibitory activity (T790M); assay type: biochemical
Experimental: as §1, §2, §3, §4, §5, §6, §7

Sequence of EGFR (T790M) (P00533 25-1210 T790M): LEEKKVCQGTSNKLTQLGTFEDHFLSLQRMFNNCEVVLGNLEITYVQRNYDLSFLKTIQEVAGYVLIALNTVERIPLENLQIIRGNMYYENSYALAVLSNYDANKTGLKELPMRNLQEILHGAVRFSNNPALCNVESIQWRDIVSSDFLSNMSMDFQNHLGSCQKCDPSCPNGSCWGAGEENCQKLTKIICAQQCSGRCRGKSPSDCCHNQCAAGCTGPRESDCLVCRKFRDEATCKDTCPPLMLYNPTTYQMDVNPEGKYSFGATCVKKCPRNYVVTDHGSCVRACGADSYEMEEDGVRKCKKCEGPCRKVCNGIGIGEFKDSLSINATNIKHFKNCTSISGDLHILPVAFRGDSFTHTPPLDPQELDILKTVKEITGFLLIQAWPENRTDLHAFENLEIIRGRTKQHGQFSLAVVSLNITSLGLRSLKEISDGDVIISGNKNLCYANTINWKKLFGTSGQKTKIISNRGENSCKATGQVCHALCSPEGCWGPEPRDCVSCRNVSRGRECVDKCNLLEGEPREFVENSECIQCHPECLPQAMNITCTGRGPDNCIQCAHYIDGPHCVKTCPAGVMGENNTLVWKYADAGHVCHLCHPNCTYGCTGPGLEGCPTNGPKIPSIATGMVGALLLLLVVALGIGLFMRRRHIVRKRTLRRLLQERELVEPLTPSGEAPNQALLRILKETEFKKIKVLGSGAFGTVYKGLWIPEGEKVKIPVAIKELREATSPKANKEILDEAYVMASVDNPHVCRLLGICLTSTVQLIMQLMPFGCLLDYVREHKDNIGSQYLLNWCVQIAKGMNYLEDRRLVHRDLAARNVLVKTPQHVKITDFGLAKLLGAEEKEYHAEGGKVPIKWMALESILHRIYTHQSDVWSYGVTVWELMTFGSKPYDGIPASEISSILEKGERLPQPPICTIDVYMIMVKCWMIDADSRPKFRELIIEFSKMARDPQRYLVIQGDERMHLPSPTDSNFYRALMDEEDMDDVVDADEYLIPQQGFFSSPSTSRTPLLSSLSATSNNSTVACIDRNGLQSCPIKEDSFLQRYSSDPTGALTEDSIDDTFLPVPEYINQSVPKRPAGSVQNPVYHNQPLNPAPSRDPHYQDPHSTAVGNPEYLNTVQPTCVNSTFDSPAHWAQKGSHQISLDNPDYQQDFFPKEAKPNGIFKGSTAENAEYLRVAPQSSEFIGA
Sequence of EGFR (WT) (P00533 25-1210): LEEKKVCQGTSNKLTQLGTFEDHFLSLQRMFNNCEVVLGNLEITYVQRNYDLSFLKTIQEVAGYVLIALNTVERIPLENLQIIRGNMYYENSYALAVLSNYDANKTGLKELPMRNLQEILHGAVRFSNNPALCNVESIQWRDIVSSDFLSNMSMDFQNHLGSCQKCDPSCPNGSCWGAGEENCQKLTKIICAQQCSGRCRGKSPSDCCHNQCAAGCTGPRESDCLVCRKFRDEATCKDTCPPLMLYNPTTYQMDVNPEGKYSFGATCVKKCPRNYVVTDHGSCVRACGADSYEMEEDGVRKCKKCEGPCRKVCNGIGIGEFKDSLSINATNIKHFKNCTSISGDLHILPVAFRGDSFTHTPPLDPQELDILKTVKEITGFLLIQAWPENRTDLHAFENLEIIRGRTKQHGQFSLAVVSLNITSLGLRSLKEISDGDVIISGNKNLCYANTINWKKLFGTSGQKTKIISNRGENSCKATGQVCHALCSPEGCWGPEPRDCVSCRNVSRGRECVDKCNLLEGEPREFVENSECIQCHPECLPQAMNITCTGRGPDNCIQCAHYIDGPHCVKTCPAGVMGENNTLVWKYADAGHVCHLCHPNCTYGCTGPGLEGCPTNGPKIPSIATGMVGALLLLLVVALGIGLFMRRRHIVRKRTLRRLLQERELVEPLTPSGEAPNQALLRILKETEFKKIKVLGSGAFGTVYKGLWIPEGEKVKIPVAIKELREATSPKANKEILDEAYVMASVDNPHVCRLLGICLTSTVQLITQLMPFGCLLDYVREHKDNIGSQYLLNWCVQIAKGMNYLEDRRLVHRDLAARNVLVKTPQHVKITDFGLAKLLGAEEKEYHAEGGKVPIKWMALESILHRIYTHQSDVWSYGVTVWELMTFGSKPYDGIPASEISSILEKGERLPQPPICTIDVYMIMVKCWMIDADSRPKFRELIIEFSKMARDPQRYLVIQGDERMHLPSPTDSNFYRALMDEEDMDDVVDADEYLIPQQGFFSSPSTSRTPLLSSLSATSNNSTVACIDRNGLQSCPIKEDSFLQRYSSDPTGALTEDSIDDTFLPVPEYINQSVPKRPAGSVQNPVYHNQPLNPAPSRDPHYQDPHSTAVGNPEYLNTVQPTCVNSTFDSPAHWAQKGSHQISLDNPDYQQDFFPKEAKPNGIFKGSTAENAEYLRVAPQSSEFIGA

| SMILES | IC50 [1] [nM] | IC50 [2] [nM] |
| --- | --- | --- |
| COc1ccc(Nc2ncnc3cc(OC(C)C)c4c(c23)OCCO4)cc1[N+](=O)[O-] [Compound I-1, 5-Isopropoxy-N-(4-methoxy-3-nitrophenyl)-2,3-dihydro-[1,4]dioxino[2,3-f]quinazolin-10-amine] | < 1000 | < 1000 |
| CC(C)Oc1cc2ncnc(Nc3ccc(F)c(C#N)c3)c2c2c1OCCO2 [Compound I-5, 2-Fluoro-5-((5-isopropoxy-2,3-dihydro-[1,4]dioxino[2,3-f]quinazolin-10-yl)amino)benzonitrile] | < 300 | < 1000 |
| Cc1ccc(Nc2ncnc3cc(OC(C)C)c4c(c23)OCCO4)cc1C#N [Compound I-6, 5-((5-Isopropoxy-2,3-dihydro-[1,4]dioxino[2,3-f]quinazolin-10-yl)amino)-2-methylbenzonitrile] | < 400 | < 1000 |
| COCCOc1cc2ncnc(Nc3ccc(OC)c([N+](=O)[O-])c3)c2c2c1OCCO2 [Compound I-9, N-(4-Methoxy-3-nitrophenyl)-5-(2-methoxyethoxy)-2,3-dihydro-[1,4]dioxino[2,3-f]quinazolin-10-amine] | < 1000 | < 1000 |
| COCCOc1cc2ncnc(Nc3ccc(C)c([N+](=O)[O-])c3)c2c2c1OCCO2 [Compound I-11, 5-(2-Methoxyethoxy)-N-(4-methyl-3-nitrophenyl)-2,3-dihydro-[1,4]dioxino[2,3-f]quinazolin-10-amine] | < 100 | < 1000 |
| COCCOc1cc2ncnc(Nc3ccc(F)c(C#N)c3)c2c2c1OCCO2 [Compound I-13, 2-Fluoro-5-((5-(2-methoxyethoxy)-2,3-dihydro-[1,4]dioxino[2,3-f]quinazolin-10-yl)amino)benzonitrile] | < 500 | < 1000 |
| COCCOc1cc2ncnc(Nc3ccc(C)c(C#N)c3)c2c2c1OCCO2 [Compound I-14, 5-((5-(2-Methoxyethoxy)-2,3-dihydro-[1,4]dioxino[2,3-f]quinazolin-10-yl)amino)-2-methylbenzonitrile] | < 1000 | < 1000 |
| C#Cc1cccc(Nc2ncnc3cc(OC(C)COC)c4c(c23)OCCO4)c1 (stereo not drawn) [Compound I-26, N-(3-Ethynylphenyl)-5-(1-methoxypropan-2-yloxy)-2,3-dihydro-[1,4]dioxino[2,3-f]quinazolin-10-amine] | < 100 | < 300 |
| CC(C)Oc1cc2ncnc(Nc3ccc(OCc4cccc(F)c4)c(Cl)c3)c2c2c1OCCO2 [Compound I-27, N-(3-Chloro-4-((3-fluorobenzyl)oxy)phenyl)-5-isopropoxy-2,3-dihydro-[1,4]dioxino[2,3-f]quinazolin-10-amine] | < 200 | < 1000 |
| C#Cc1cccc(Nc2ncnc3cc(OC)c4c(c23)OCCO4)c1 [Compound I-28, N-(3-Ethynylphenyl)-5-methoxy-2,3-dihydro-[1,4]dioxino[2,3-f]quinazolin-10-amine] | < 50 | < 1000 |
| COc1cc2ncnc(Nc3ccc(F)c(Cl)c3)c2c2c1OCCO2 [Compound I-29, N-(3-Chloro-4-fluorophenyl)-5-methoxy-2,3-dihydro-[1,4]dioxino[2,3-f]quinazolin-10-amine] | < 50 | < 1000 |
| C#Cc1cccc(Nc2ncnc3cc(OCCOC)c4c(c23)OCCO4)c1 [Compound I-31, N-(3-Ethynylphenyl)-5-(2-methoxyethoxy)-2,3-dihydro-[1,4]dioxino[2,3-f]quinazolin-10-amine] | < 50 | < 50 |
| COCCOc1cc2ncnc(Nc3ccc(F)cc3)c2c2c1OCCO2 [Compound I-32, N-(4-fluorophenyl)-5-(2-methoxyethoxy)-2,3-dihydro-[1,4]dioxino[2,3-f]quinazolin-10-amine] | < 200 | < 1000 |
| CCOc1cc2ncnc(Nc3cccc([N+](=O)[O-])c3)c2c2c1OCCO2 [Compound I-38, 5-Ethoxy-N-(3-nitrophenyl)-2,3-dihydro-[1,4]dioxino[2,3-f]quinazolin-10-amine] | < 50 | < 50 |
| Fc1ccc(Nc2ncnc3cc(OCC4CCCO4)c4c(c23)OCCO4)cc1Cl (stereo not drawn) [Compound I-40, N-(3-Chloro-4-fluorophenyl)-5-((tetrahydrofuran-2-yl)methoxy)-2,3-dihydro-[1,4]dioxino[2,3-f]quinazolin-10-amine] | < 50 | < 1000 |
| Cc1ccc(Nc2ncnc3cc4c(cc23)N(CCCN2CCOCC2)C(=O)CO4)cc1Cl [II-3, 4-((3-Chloro-4-methylphenyl)amino)-6-(3-morpholinopropyl)[1,4]oxazino[3,2-g]quinazolin-7(8H)-one] | < 200 | < 1000 |
| COc1cccc(Nc2ncnc3cc4c(cc23)N(CCCN2CCOCC2)C(=O)CO4)c1 [II-4, 4-((3-Methoxyphenyl)amino)-6-(3-morpholinopropyl)-6H-[1,4]oxazino[3,2-g]quinazolin-7(8H)-one] | < 200 | < 1000 |
| COc1ccc(Nc2ncnc3cc4c(cc23)N(CCCN2CCOCC2)C(=O)CO4)cc1OC [II-5, 4-((3,4-Dimethoxyphenyl)amino)-6-(3-morpholinopropyl)-6H-[1,4]oxazino[3,2-g]quinazolin-7(8H)-one] | < 200 | < 1000 |

The remaining lines, values ahead:

| IC50 [1] [nM] | IC50 [2] [nM] | SMILES |
| --- | --- | --- |
| < 100 | < 1000 | CC(C)Oc1cc2ncnc(Nc3ccc(F)c([N+](=O)[O-])c3)c2c2c1OCCO2 [Compound I-2, N-(4-Fluoro-3-nitrophenyl)-5-isopropoxy-2,3-dihydro-[1,4]dioxino[2,3-f]quinazolin-10-amine] |
| < 200 | < 1000 | Cc1ccc(Nc2ncnc3cc(OC(C)C)c4c(c23)OCCO4)cc1[N+](=O)[O-] [Compound I-3, 5-Isopropoxy-N-(4-methyl-3-nitrophenyl)-2,3-dihydro-[1,4]dioxino[2,3-f]quinazolin-10-amine] |
| < 100 | < 1000 | CC(C)Oc1cc2ncnc(Nc3ccc(Cl)c([N+](=O)[O-])c3)c2c2c1OCCO2 [Compound I-4, N-(4-Chloro-3-nitrophenyl)-5-isopropoxy-2,3-dihydro-[1,4]dioxino[2,3-f]quinazolin-10-amine] |
| < 50 | < 1000 | COCCOc1cc2ncnc(Nc3ccc(Cl)c([N+](=O)[O-])c3)c2c2c1OCCO2 [Compound I-12, N-(4-Chloro-3-nitrophenyl)-5-(2-methoxyethoxy)-2,3-dihydro-[1,4]dioxino[2,3-f]quinazolin-10-amine] |
| < 1000 | < 1000 | CCOC(C)Oc1cc2ncnc(Nc3ccc(OC)c([N+](=O)[O-])c3)c2c2c1OCCO2 (stereo not drawn) [Compound I-15, 5-(1-Ethoxyethoxy)-N-(4-methoxy-3-nitrophenyl)-2,3-dihydro-[1,4]dioxino[2,3-f]quinazolin-10-amine] |
| < 300 | < 1000 | CCOC(C)Oc1cc2ncnc(Nc3ccc(Cl)c([N+](=O)[O-])c3)c2c2c1OCCO2 (stereo not drawn) [Compound I-17, N-(4-Chloro-3-nitrophenyl)-5-(1-ethoxyethoxy)-2,3-dihydro-[1,4]dioxino[2,3-f]quinazolin-10-amine] |
| < 300 | < 1000 | CCOC(C)Oc1cc2ncnc(Nc3ccc(C)c([N+](=O)[O-])c3)c2c2c1OCCO2 (stereo not drawn) [Compound I-18, 5-(1-Ethoxyethoxy)-N-(4-methyl-3-nitrophenyl)-2,3-dihydro-[1,4]dioxino[2,3-f]quinazolin-10-amine] |
| < 300 | < 1000 | CCOC(C)Oc1cc2ncnc(Nc3ccc(F)c(C#N)c3)c2c2c1OCCO2 (stereo not drawn) [Compound I-19, 5-((5-(1-Ethoxyethoxy)-2,3-dihydro-[1,4]dioxino[2,3-f]quinazolin-10-yl)amino)-2-fluoro-benzonitrile] |
| < 1000 | < 1000 | CCOC(C)Oc1cc2ncnc(Nc3ccc(C)c(C#N)c3)c2c2c1OCCO2 (stereo not drawn) [Compound I-20, 5-((5-(1-Ethoxyethoxy)-2,3-dihydro-[1,4]dioxino[2,3-f]quinazolin-10-yl)amino)-2-methylbenzonitrile] |

Reference: patent publication US10106508B2, “Quinazoline heterocyclic compound as EGFR kinase inhibitor and preparation and application thereof” (BEIJING SCITECH-MQ PHARMACEUTICALS LIMITED, priority 2015, dated 2018)
